Patent US12404239B2, “Modulators of BCL6 as ligand directed degraders” (Celgene Corporation, priority 2022, dated 2025)

target: T1, BCL6 (Homo sapiens, UniProt P41182); test: BCL6_HiBiT degradation assay (2 h); assay type: cell-based; settings: DHL-4_BCL6_HiBiT cells, read-out: YCon (% remaining maximal effect)
T1 construct: HiBiT-tag knocked into endogenous BCL6 locus using CRISPR; endogenous in cells; host or cells: DHL-4_BCL6_HiBiT cells (CRISPR knock-in)
In short: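 DHL-4 cells carrying CRISPR HiBiT knock-in at endogenous BCL6, treated 2 h at 37 °C with 10-point 3-fold dilutions from 1-10 μM. BCL6 level read by Nano-Glo HiBiT lytic luminescence normalized to DMSO; four-parameter fit gives degradation EC50 and Yconstant (% remaining at maximal effect).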

`C[C@@H]1CN(c2ncc(Cl)c(Nc3ccc4c(c3)C(F)(F)C(=O)N4C)n2)CC[C@H]1Nc1ccc2c(C3CCC(=O)NC3=O)nn(C)c2c1` (stereo partly drawn) [Example 56, 3-(6-(((3R,4R)-1-(5-chloro-4-((3,3-difluoro-1-methyl-2-oxoindolin-5-yl)amino)pyrimidin-2-yl)-3-methylpiperidin-4-yl)amino)-1-methyl-1H-indazol-3-yl)piperidine-2,6-dione] and `C[C@@H]1CN(c2ncc(Cl)c(Nc3ccc4c(c3)N(C)C(=O)C4)n2)CC[C@H]1Nc1ccc2c(C3CCC(=O)NC3=O)nn(C)c2c1` (stereo partly drawn) [Example 61, 3-(6-(((3R,4R)-1-(5-chloro-4-((1-methyl-2-oxoindolin-6-yl)amino)pyrimidin-2-yl)-3-methylpiperidin-4-yl)amino)-1-methyl-1H-indazol-3-yl)piperidine-2,6-dione] cannot be ordered by Percent BCL6 remaining at maximal degradation (Ycon): less than 20% for the first, less than 20% for the second.

First: CN1C(=O)Cc2cc(Nc3nc(N4CC[C@@H](Nc5ccc6c(C7CCC(=O)NC7=O)nn(C)c6c5)[C@@H](CO)C4)ncc3Cl)ccc21 (stereo partly drawn) [Example 57, 3-[6-[[(3S,4R)-1-[5-Chloro-4-[(1-methyl-2-oxo-indolin-5-yl)amino]pyrimidin-2-yl]-3-(hydroxymethyl)-4-piperidyl]amino]-1-methyl-indazol-3-yl]piperidine-2,6-dione]
Second: CN1C(=O)Cc2cc(Nc3nc(N4CC[C@H](Nc5ccc6c(C7CCC(=O)NC7=O)nn(C)c6c5)[C@H](CO)C4)ncc3Cl)ccc21 (stereo partly drawn) [Example 58, 3-(6-(((3R,4S)-1-(5-chloro-4-((1-methyl-2-oxoindolin-5-yl)amino)pyrimidin-2-yl)-3-(hydroxymethyl)piperidin-4-yl)amino)-1-methyl-1H-indazol-3-yl)piperidine-2,6-dione]
The Percent BCL6 remaining at maximal degradation (Ycon) of the first is higher: greater than 60% for the first, 20 to 60% for the second.

`CN1C(=O)Cc2cc(Nc3nc(N(C)C4CCN(c5cnc6c(C7CCC(=O)NC7=O)nn(C)c6c5)CC4)ncc3Cl)ccc21` (stereo not shown) [Example 59, 3-(6-(4-((5-chloro-4-((1-methyl-2-oxoindolin-5-yl)amino)pyrimidin-2-yl)(methyl)amino)piperidin-1-yl)-1-methyl-1H-pyrazolo[4,3-b]pyridin-3-yl)piperidine-2,6-dione] and `CN1C(=O)Cc2cc(Nc3nc(N(C)C4CCN(c5cc6c(cn5)c(C5CCC(=O)NC5=O)nn6C)CC4)ncc3Cl)ccc21` (stereo not shown) [Example 60, 3-(6-(4-((5-chloro-4-((1-methyl-2-oxoindolin-5-yl)amino)pyrimidin-2-yl)(methyl)amino)piperidin-1-yl)-1-methyl-1H-pyrazolo[4,3-c]pyridin-3-yl)piperidine-2,6-dione] cannot be ordered by Percent BCL6 remaining at maximal degradation (Ycon): greater than 60% for the first, greater than 60% for the second.

`C[C@@H]1CN(c2ncc(Cl)c(Nc3ccc4c(c3)CC(=O)N4C)n2)CC[C@H]1Nc1ccc2c(C3CCC(=O)NC3=O)nn(C)c2n1` (stereo partly drawn) [Example 62, 3-(6-(((3R,4R)-1-(5-chloro-4-((1-methyl-2-oxoindolin-5-yl)amino)pyrimidin-2-yl)-3-methylpiperidin-4-yl)amino)-1-methyl-1H-pyrazolo[3,4-b]pyridin-3-yl)piperidine-2,6-dione] and `C[C@@H]1CN(c2ncc(Cl)c(Nc3ccc4c(c3)CC(=O)N4C)n2)CC[C@H]1Nc1ccc2c(C3CCC(=O)NC3=O)nn(C)c2c1` (stereo partly drawn) [Example 70, 3-(6-(((3R,4R)-1-(5-chloro-4-((1-methyl-2-oxoindolin-5-yl)amino)pyrimidin-2-yl)-3-methylpiperidin-4-yl)amino)-1-methyl-1H-indazol-3-yl)piperidine-2,6-dione] cannot be ordered by Percent BCL6 remaining at maximal degradation (Ycon): less than 20% for the first, less than 20% for the second.

`Cn1nc(C2CCC(=O)NC2=O)c2ccc(NC3CCN(c4ncc(Cl)c(Nc5ccc6c(c5)CC(=O)N6)n4)CC3)cc21` (stereo not shown) [Example 63, 3-(6-((1-(5-chloro-4-((2-oxoindolin-5-yl)amino)pyrimidin-2-yl)piperidin-4-yl)amino)-1-methyl-1H-indazol-3-yl)piperidine-2,6-dione] and `CN1C(=O)Cc2cc(Nc3nc(N4CCC(Nc5ccc6c(C7CCC(=O)NC7=O)nn(C)c6c5)C(F)(F)C4)ncc3Cl)ccc21` (stereo not shown) [Example 64, 3-(6-((1-(5-Chloro-4-((1-methyl-2-oxoindolin-5-yl)amino)pyrimidin-2-yl)-3,3-difluoropiperidin-4-yl)amino)-1-methyl-1H-indazol-3-yl)piperidine-2,6-dione] cannot be ordered by Percent BCL6 remaining at maximal degradation (Ycon): greater than 60% for the first, greater than 60% for the second.

`CN1C(=O)Cc2cc(Nc3nc(N4CCC(Nc5ccc6c(N7CCC(=O)NC7=O)nn(C)c6c5)C(F)(F)C4)ncc3Cl)ccc21` (stereo not shown) [Example 65, 1-(6-((1-(5-chloro-4-((1-methyl-2-oxoindolin-5-yl)amino)pyrimidin-2-yl)-3,3-difluoropiperidin-4-yl)amino)-1-methyl-1H-indazol-3-yl)dihydropyrimidine-2,4(1H,3H)-dione] and `CN1C(=O)Cc2cc(Nc3nc(N4CC[C@@H](Nc5ccc6c(C7CCC(=O)NC7=O)nn(C)c6c5)C(F)(F)C4)ncc3Cl)ccc21` (stereo partly drawn) [Example 66, 3-(6-(((R)-1-(5-chloro-4-((1-methyl-2-oxoindolin-5-yl)amino)pyrimidin-2-yl)-3,3-difluoropiperidin-4-yl)amino)-1-methyl-1H-indazol-3-yl)piperidine-2,6-dione] cannot be ordered by Percent BCL6 remaining at maximal degradation (Ycon): greater than 60% for the first, greater than 60% for the second.

`CN1C(=O)Cc2cc(Nc3nc(N4CC[C@H](Nc5ccc6c(C7CCC(=O)NC7=O)nn(C)c6c5)C(F)(F)C4)ncc3Cl)ccc21` (stereo partly drawn) [Example 67, 3-(6-(((S)-1-(5-chloro-4-((1-methyl-2-oxoindolin-5-yl)amino)pyrimidin-2-yl)-3,3-difluoropiperidin-4-yl)amino)-1-methyl-1H-indazol-3-yl)piperidine-2,6-dione] and `CN1C(=O)Cc2cc(Nc3nc(NC4CCN(c5ccc6c(C7CCC(=O)NC7=O)nn(C)c6c5)CC4(F)F)ncc3Cl)ccc21` (stereo not shown) [Example 68, 3-(6-(4-((5-chloro-4-((1-methyl-2-oxoindolin-5-yl)amino)pyrimidin-2-yl)amino)-3,3-difluoropiperidin-1-yl)-1-methyl-1H-indazol-3-yl)piperidine-2,6-dione] fall in the same range of Percent BCL6 remaining at maximal degradation (Ycon): 20 to 60% for the first, 20 to 60% for the second.

`CCN1C(=O)Cc2cc(Nc3nc(N4CC[C@@H](Nc5ccc6c(C7CCC(=O)NC7=O)nn(C)c6c5)[C@H](C)C4)ncc3Cl)ccc21` (stereo partly drawn) [Example 69, 3-(6-(((3R,4R)-1-(5-chloro-4-((1-ethyl-2-oxoindolin-5-yl)amino)pyrimidin-2-yl)-3-methylpiperidin-4-yl)amino)-1-methyl-1H-indazol-3-yl)piperidine-2,6-dione] and `COCCN1C(=O)Cc2cc(Nc3nc(N4CC[C@@H](Nc5ccc6c(C7CCC(=O)NC7=O)nn(C)c6c5)[C@H](C)C4)ncc3Cl)ccc21` (stereo partly drawn) [Example 75, 3-(6-(((3R,4R)-1-(5-chloro-4-((1-(2-methoxyethyl)-2-oxoindolin-5-yl)amino)pyrimidin-2-yl)-3-methylpiperidin-4-yl)amino)-1-methyl-1H-indazol-3-yl)piperidine-2,6-dione] cannot be ordered by Percent BCL6 remaining at maximal degradation (Ycon): less than 20% for the first, less than 20% for the second.

Going from `C[C@@H]1CN(c2ncc(Cl)c(Nc3ccc4c(c3)CC(=O)N4C)n2)CC[C@H]1N(C)c1ccc2c(C3CCC(=O)NC3=O)nn(C)c2c1` (stereo partly drawn) [Example 73, 3-(6-(((3R,4R)-1-(5-chloro-4-((1-methyl-2-oxoindolin-5-yl)amino)pyrimidin-2-yl)-3-methylpiperidin-4-yl)(methyl)amino)-1-methyl-1H-indazol-3-yl)piperidine-2,6-dione] to `C[C@H]1C[C@H](N(C)c2ccc3c(C4CCC(=O)NC4=O)nn(C)c3c2)CCN1c1ncc(Cl)c(Nc2ccc3c(c2)CC(=O)N3C)n1` (stereo partly drawn) [Example 84, 3-(6-(((2S,4R)-1-(5-chloro-4-((1-methyl-2-oxoindolin-5-yl)amino)pyrimidin-2-yl)-2-methylpiperidin-4-yl)(methyl)amino)-1-methyl-1H-indazol-3-yl)piperidine-2,6-dione], the Percent BCL6 remaining at maximal degradation (Ycon) rises from less than 20% to greater than 60%.

First: C[C@@H]1CN(c2ncc(Cl)c(Nc3cnc4c(c3)CC(=O)N4C)n2)CC[C@H]1Nc1ccc2c(C3CCC(=O)NC3=O)nn(C)c2c1 (stereo partly drawn) [Example 74, 3-(6-(((3R,4R)-1-(5-chloro-4-((1-methyl-2-oxo-2,3-dihydro-1H-pyrrolo[2,3-b]pyridin-5-yl)amino)pyrimidin-2-yl)-3-methylpiperidin-4-yl)amino)-1-methyl-1H-indazol-3-yl)piperidine-2,6-dione]
Second: C[C@H]1C[C@H](Nc2ccc3c(C4CCC(=O)NC4=O)nn(C)c3c2)CCN1c1ncc(Cl)c(Nc2ccc3c(c2)CC(=O)N3C)n1 (stereo partly drawn) [Example 81, 3-(6-(((2S,4R)-1-(5-chloro-4-((1-methyl-2-oxoindolin-5-yl)amino)pyrimidin-2-yl)-2-methylpiperidin-4-yl)amino)-1-methyl-1H-indazol-3-yl)piperidine-2,6-dione]
The Percent BCL6 remaining at maximal degradation (Ycon) of the first is higher: 20 to 60% for the first, less than 20% for the second.

Compared with `C[C@@H]1CN(c2ncc(Cl)c(Nc3ccc4c(c3)CC(=O)N4C)n2)C[C@@H](C)N1c1ccc2c(C3CCC(=O)NC3=O)nn(C)c2c1` (stereo partly drawn) [Example 78, 3-(6-((2R,6R)-4-(5-chloro-4-((1-methyl-2-oxoindolin-5-yl)amino)pyrimidin-2-yl)-2,6-dimethylpiperazin-1-yl)-1-methyl-1H-indazol-3-yl)piperidine-2,6-dione], `C[C@@H]1CN(c2ncc(Cl)c(Nc3ccc4c(c3)CC(=O)N4C)n2)CC[C@H]1Nc1ccc2c(C3(C)CCC(=O)NC3=O)nn(C)c2c1` (stereo partly drawn) [Example 85, 3-(6-(((3R,4R)-1-(5-chloro-4-((1-methyl-2-oxoindolin-5-yl)amino)pyrimidin-2-yl)-3-methylpiperidin-4-yl)amino)-1-methyl-1H-indazol-3-yl)-3-methylpiperidine-2,6-dione] is lower in Percent BCL6 remaining at maximal degradation (Ycon): 20 to 60% for the first, less than 20% for the second.
